Reference: patent publication US9670227B2, “Thienopyrimidine derivatives, a process for their preparation and pharmaceutical compositions containing them” (LES LABORATOIRES SERVIER, priority 2013, dated 2017)

Target: Mcl-1 protein (UniProtKB primary accession number: Q07820) (Homo sapiens, UniProt Q07820)
Experiment: Inhibition of Mcl-1 by fluorescence polarisation, Method 1
Assay type: binding
Conditions: fluorescence polarisation test; Method 2 values are underlined in the patent (underlining not visible here); read-out: IC50 (M) Mcl-1 FP
Experimental: The relative binding potency of each compound was determined via Fluorescence Polarisation (FP).
An 11 point serial dilution of each compound was prepared in DMSO and 2 μl transferred into flat bottomed, low binding, 384-well plate (final DMSO concentration 5%). 38 μl of buffer (10 mM 4-(2-hydroxyethyl)-1-piperazineethanesulfonic acid [HEPES], 150 mM NaCl, 0.05% Tween 20, pH 7.4), containing the Fluorescein labelled ligand (final concentration 1 nM) and Mcl-1 protein (final concentration 5 nM) was then added.

Mcl-1 protein, sequence (Q07820 whole entry): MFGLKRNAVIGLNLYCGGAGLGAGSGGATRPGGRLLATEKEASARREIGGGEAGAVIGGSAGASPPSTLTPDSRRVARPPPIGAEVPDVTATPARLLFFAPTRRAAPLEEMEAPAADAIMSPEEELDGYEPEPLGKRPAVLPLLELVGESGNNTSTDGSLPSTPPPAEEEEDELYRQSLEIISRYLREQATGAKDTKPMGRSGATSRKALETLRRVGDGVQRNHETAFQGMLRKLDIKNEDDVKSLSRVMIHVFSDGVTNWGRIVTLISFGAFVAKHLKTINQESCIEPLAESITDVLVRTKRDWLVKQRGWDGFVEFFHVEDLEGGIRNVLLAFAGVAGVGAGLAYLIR

Row | SMILES | IC50 [M]
1 | Cc1c(-c2c(-c3ccc(F)cc3)sc3ncnc(OC(Cc4ccccc4OCC(F)(F)F)C(=O)O)c23)ccc(OCCN2CCN(C)CC2)c1Cl [Example 3, (2R)-2-{[(5Sa)-5-{3-chloro-2-methyl-4-[2-(4-methylpiperazin-1-yl)ethoxy]phenyl}-6-(4-fluorophenyl)thieno[2,3-d]pyrimidin-4-yl]oxy}-3-[2-(2,2,2-trifluoroethoxy)phenyl]propanoic acid] | 8.9e-09
2 | Cc1c(-c2c(-c3ccc(F)cc3)sc3ncnc(OC(Cc4ccccc4OCc4ccccn4)C(=O)O)c23)ccc(OCCN2CCN(C)CC2)c1Cl [Example 14, (2R)-2-{[(5Sa)-5-{3-chloro-2-methyl-4-[2-(4-methylpiperazin-1-yl)ethoxy]phenyl}-6-(4-fluorophenyl)thieno[2,3-d]pyrimidin-4-yl]oxy}-3-[2-(pyridin-2-ylmethoxy)phenyl]propanoic acid] | 1.3e-08
3 | Cc1c(-c2c(-c3ccc(F)cc3)sc3ncnc(OC(Cc4ccccc4OCc4ccnc(-c5ccccn5)n4)C(=O)O)c23)ccc(OCCN2CCN(C)CC2)c1Cl [Example 31, (2R)-2-{[(5Sa)-5-{3-chloro-2-methyl-4-[2-(4-methylpiperazin-1-yl)ethoxy]phenyl}-6-(4-fluorophenyl)thieno[2,3-d]pyrimidin-4-yl]oxy}-3-(2-{[2-(pyridin-2-yl)pyrimidin-4-yl]methoxy}phenyl)propanoic acid] | 5.6e-09
4 | Cc1c(-c2c(-c3ccc(F)cc3)sc3ncnc(OC(Cc4ccccc4OCc4ccnc(-c5cccnc5)n4)C(=O)O)c23)ccc(OCCN2CCN(C)CC2)c1Cl [Example 32, (2R)-2-{[(5Sa)-5-{3-chloro-2-methyl-4-[2-(4-methylpiperazin-1-yl)ethoxy]phenyl}-6-(4-fluorophenyl)thieno[2,3-d]pyrimidin-4-yl]oxy}-3-(2-{[2-(pyridin-3-yl)pyrimidin-4-yl]methoxy}phenyl)propanoic acid] | 4.8e-09
5 | Cc1c(-c2c(-c3ccc(F)cc3)sc3ncnc(OC(Cc4ccccc4OCc4ccnc(-c5ccncc5)n4)C(=O)O)c23)ccc(OCCN2CCN(C)CC2)c1Cl [Example 34, (2R)-2-{[(5Sa)-5-{3-chloro-2-methyl-4-[2-(4-methylpiperazin-1-yl)ethoxy]phenyl}-6-(4-fluorophenyl)thieno[2,3-d]pyrimidin-4-yl]oxy}-3-(2-{[2-(pyridin-4-yl)pyrimidin-4-yl]methoxy}phenyl)propanoic acid] | 3.3e-09
6 | COCCc1nccc(COc2ccccc2CC(Oc2ncnc3sc(-c4ccc(F)cc4)c(-c4ccc(OCCN5CCN(C)CC5)c(Cl)c4C)c23)C(=O)O)n1 [Example 44, (2R)-2-{[(5Sa)-5-{3-chloro-2-methyl-4-[2-(4-methylpiperazin-1-yl)ethoxy]phenyl}-6-(4-fluorophenyl)thieno[2,3-d]pyrimidin-4-yl]oxy}-3-(2-{[2-(2-methoxyethyl)pyrimidin-4-yl]methoxy}phenyl)propanoic acid] | 4.8e-09
7 | Cc1c(-c2c(-c3ccc(F)cc3)sc3ncnc(OC(Cc4ccccc4OCc4ccnc(N5CCOCC5)n4)C(=O)O)c23)ccc(OCCN2CCN(C)CC2)c1Cl [Example 52, (2R)-2-{[(5Sa)-5-{3-chloro-2-methyl-4-[2-(4-methylpiperazin-1-yl)ethoxy]phenyl}-6-(4-fluorophenyl)thieno[2,3-d]pyrimidin-4-yl]oxy}-3-(2-{[2-(morpholin-4-yl)pyrimidin-4-yl]methoxy}phenyl)propanoic acid] | 5.6e-09
8 | COc1nccc(COc2ccccc2CC(Oc2ncnc3sc(-c4ccc(F)cc4)c(-c4ccc(OCCN5CCN(C)CC5)c(Cl)c4C)c23)C(=O)O)n1 [Example 54, (2R)-2-{[(5Sa)-5-{3-chloro-2-methyl-4-[2-(4-methylpiperazin-1-yl)ethoxy]phenyl}-6-(4-fluorophenyl)thieno[2,3-d]pyrimidin-4-yl]oxy}-3-{2-[(2-methoxypyrimidin-4-yl)methoxy]phenyl}propanoic acid] | 5.7e-09
9 | Cc1c(-c2c(-c3ccc(F)cc3)sc3ncnc(O[C@H](Cc4ccccc4OCc4ccnn4C)C(=O)O)c23)ccc(OCCN2CCN(C)CC2)c1Cl [Example 69, (2R)-2-{[(5Sa)-5-{3-chloro-2-methyl-4-[2-(4-methylpiperazin-1-yl)ethoxy]phenyl}-6-(4-fluorophenyl)thieno[2,3-d]pyrimidin-4-yl]oxy}-3-{2-[(1-methyl-1H-pyrazol-5-yl)methoxy]phenyl}propanoic acid] | 9.7e-08
10 | Cc1c(-c2c(-c3ccc(F)cc3)sc3ncnc(OC(Cc4ccccc4OCc4ccnn4C(C)(C)C)C(=O)O)c23)ccc(OCCN2CCN(C)CC2)c1Cl [Example 70, (2R)-3-{2-[(1-tert-butyl-1H-pyrazol-5-yl)methoxy]phenyl}-2-{[(5Sa)-5-{3-chloro-2-methyl-4-[2-(4-methylpiperazin-1-yl)ethoxy]phenyl}-6-(4-fluorophenyl)thieno[2,3-d]pyrimidin-4-yl]oxy}propanoic acid] | 1.6e-09
11 | Cc1c(-c2c(-c3ccc(F)cc3)sc3ncnc(OC(Cc4ccccc4OCc4ccnn4C(C)C)C(=O)O)c23)ccc(OCCN2CCN(C)CC2)c1Cl [Example 71, (2R)-2-{[(5Sa)-5-{3-chloro-2-methyl-4-[2-(4-methylpiperazin-1-yl)ethoxy]phenyl}-6-(4-fluorophenyl)thieno[2,3-d]pyrimidin-4-yl]oxy}-3-(2-{[1-(propan-2-yl)-1H-pyrazol-5-yl]methoxy}phenyl)propanoic acid] | 9.4e-09
12 | CCn1nccc1COc1ccccc1CC(Oc1ncnc2sc(-c3ccc(F)cc3)c(-c3ccc(OCCN4CCN(C)CC4)c(Cl)c3C)c12)C(=O)O [Example 76, (2R)-2-{[(5Sa)-5-{3-chloro-2-methyl-4-[2-(4-methylpiperazin-1-yl)ethoxy]phenyl}-6-(4-fluorophenyl)thieno[2,3-d]pyrimidin-4-yl]oxy}-3-{2-[(1-ethyl-1H-pyrazol-5-yl)methoxy]phenyl}propanoic acid] | 1.6e-08
13 | Cc1c(-c2c(-c3ccc(F)cc3)sc3ncnc(OC(Cc4ccccc4OCc4ccnn4CC(F)(F)F)C(=O)O)c23)ccc(OCCN2CCN(C)CC2)c1Cl [Example 77, (2R)-2-{[(5Sa)-5-{3-chloro-2-methyl-4-[2-(4-methylpiperazin-1-yl)ethoxy]phenyl}-6-(4-fluorophenyl)thieno[2,3-d]pyrimidin-4-yl]oxy}-3-(2-{[1-(2,2,2-trifluoroethyl)-1H-pyrazol-5-yl]methoxy}phenyl)propanoic acid] | 5.9e-09
14 | CCCCn1nccc1COc1ccccc1CC(Oc1ncnc2sc(-c3ccc(F)cc3)c(-c3ccc(OCCN4CCN(C)CC4)c(Cl)c3C)c12)C(=O)O [Example 83, (2R)-3-{2-[(1-butyl-1H-pyrazol-5-yl)methoxy]phenyl}-2-{[(5Sa)-5-{3-chloro-2-methyl-4-[2-(4-methylpiperazin-1-yl)ethoxy]phenyl}-6-(4-fluorophenyl)thieno[2,3-d]pyrimidin-4-yl]oxy}propanoic acid] | 5.1e-09
15 | Cc1c(-c2c(-c3ccc(F)cc3)sc3ncnc(OC(Cc4ccccc4OCc4cnccn4)C(=O)O)c23)ccc(OCCN2CCN(C)CC2)c1Cl [Example 91, (2R)-2-{[(5Sa)-5-{3-chloro-2-methyl-4-[2-(4-methylpiperazin-1-yl)ethoxy]phenyl}-6-(4-fluorophenyl)thieno[2,3-d]pyrimidin-4-yl]oxy}-3-[2-(pyrazin-2-ylmethoxy)phenyl]propanoic acid] | 7.3e-09
16 | Cc1c(-c2c(-c3ccc(F)cc3)sc3ncnc(OC(Cc4ccccc4OCc4cncn4C)C(=O)O)c23)ccc(OCCN2CCN(C)CC2)c1Cl [Example 92, (2R)-2-{[(5Sa)-5-{3-chloro-2-methyl-4-[2-(4-methylpiperazin-1-yl)ethoxy]phenyl}-6-(4-fluorophenyl)thieno[2,3-d]pyrimidin-4-yl]oxy}-3-{2-[(1-methyl-1H-imidazol-5-yl)methoxy]phenyl}propanoic acid] | 1.2e-08
17 | COc1ncc(Br)c(COc2ccccc2C[C@@H](Oc2ncnc3sc(-c4ccc(F)cc4)c(-c4ccc(OCCN5CCN(C)CC5)c(Cl)c4C)c23)C(=O)O)n1 [Example 99, (2R)-3-{2-[(5-bromo-2-methoxypyrimidin-4-yl)methoxy]phenyl}-2-{[(5Sa)-5-{3-chloro-2-methyl-4-[2-(4-methylpiperazin-1-yl)ethoxy]phenyl}-6-(4-fluorophenyl)thieno[2,3-d]pyrimidin-4-yl]oxy}propanoic acid] | 2e-08
18 | COc1ncc(-c2ccsc2)c(COc2ccccc2CC(Oc2ncnc3sc(-c4ccc(F)cc4)c(-c4ccc(OCCN5CCN(C)CC5)c(Cl)c4C)c23)C(=O)O)n1 [Example 100, (2R)-2-{[(5Sa)-5-{3-chloro-2-methyl-4-[2-(4-methylpiperazin-1-yl)ethoxy]phenyl}-6-(4-fluorophenyl)thieno[2,3-d]pyrimidin-4-yl]oxy}-3-(2-{[2-methoxy-5-(thiophen-3-yl)pyrimidin-4-yl]methoxy}phenyl)propanoic acid] | 1.2e-08
19 | Cc1c(-c2c(-c3ccc(F)cc3)sc3ncnc(OC(Cc4ccccc4OCc4nncn4C)C(=O)O)c23)ccc(OCCN2CCN(C)CC2)c1Cl [Example 102, (2R)-2-{[(5Sa)-5-{3-chloro-2-methyl-4-[2-(4-methylpiperazin-1-yl)ethoxy]phenyl}-6-(4-fluorophenyl)thieno[2,3-d]pyrimidin-4-yl]oxy}-3-{2-[(4-methyl-4H-1,2,4-triazol-3-yl)methoxy]phenyl}propanoic acid] | 9.5e-09
20 | Cc1ccccc1-c1nccc(COc2ccccc2CC(Oc2ncnc3sc(-c4ccc(F)cc4)c(-c4ccc(OCCN5CCN(C)CC5)c(Cl)c4C)c23)C(=O)O)n1 [Example 113, (2R)-2-{[(5Sa)-5-{3-chloro-2-methyl-4-[2-(4-methylpiperazin-1-yl)ethoxy]phenyl}-6-(4-fluorophenyl)thieno[2,3-d]pyrimidin-4-yl]oxy}-3-(2-{[2-(2-methylphenyl)pyrimidin-4-yl]methoxy}phenyl)propanoic acid] | 2.6e-09
